Like-named read-outs stand apart in the source and are kept apart here.
Columns and labels:
[1] = tested on: synthesis of estrogens; settings: seven days, testosterone propionate-treated immature female rats
[2] = tested on: DMBA-induced Mammary Tumor; assay: DMBA-induced mammary tumor inhibition; format: in vivo, Sprague-Dawley rats; settings: for Mean Tumor Area (mm^2) Start: start of test
Description: Mammary tumors were produced in female Sprague-Dawley rats which were 50-60 days old by the gavage administration of 20 mg of 7,12-dimethylbenz[a]anthracene (DMBA). About six weeks after DMBA administration, the mammary glands were palpated at weekly intervals for the appearance of tumors. Whenever one or more tumors appeared and were measurable in an animal, that animal was selected for experimentation. […] Each control and test group contained 8 animals. The test compound was administered either mixed into the food at a concentration of 300 ppm (corresponding to an appropriate daily dose of 30 mg/kg) or the compounds were dissolved or suspended in corn oil and administered once daily by gavage. Every experiment included a group of control rats having tumors and were either given food without the compound admixed or corn oil vehicle by gavage, depending on how the test compound was administered. […] The area of each tumor was calculated by multiplying the shortest and longest diameters of the tumor. The treatment and measurement of animals continued for 4-8 weeks at which time the final areas of the tumors were determined. For each compound (and control) at each dose level, the change in the mean tumor area was determined. The mean change was analyzed for its significance using Dunnett's t-test.

[3] = 300 ppm in feed (approximately 30 mg/kg/day)
[4] = 300 ppm in the diet, 5 weeks test

Row | SMILES | Mean Uterine Weight (mg) ([1]; 30 ppm in feed (approximately 3 mg/kg/day)) | Mean Uterine Weight (mg) [1, 3] | Mean Tumor Area (mm^2) Finish ([2]; 300 ppm in the diet, 5 weeks) | Mean Tumor Area (mm^2) Start [2, 4] [mm^2] | Mean Tumor Area (mm^2) Finish ([2]; 1 mg/kg daily by gavage, 5 weeks) | Mean Tumor Area (mm^2) Start ([2]; 1 mg/kg daily by gavage, 5 weeks test) [mm^2] | Mean Tumor Area (mm^2) Finish ([2]; 5 mg/kg daily by gavage, 4 weeks) [mm^2] | Mean Tumor Area (mm^2) Start ([2]; 5 mg/kg daily by gavage, 4 weeks test) [mm^2] | Mean Tumor Area (mm^2) Finish ([2]; 7.5 mg/kg daily by gavage, 5 weeks) | Mean Tumor Area (mm^2) Start ([2]; 7.5 mg/kg daily by gavage, 5 weeks test) [mm^2] | Mean Tumor Area (mm^2) Finish ([2]; 15 mg/kg daily by gavage, 5 weeks) | Mean Tumor Area (mm^2) Start ([2]; 15 mg/kg daily by gavage, 5 weeks test) [mm^2] | Mean Tumor Area (mm^2) Finish ([2]; 30 mg/kg daily by gavage, 4 weeks) [mm^2] | Mean Tumor Area (mm^2) Start ([2]; 30 mg/kg daily by gavage, 4 weeks test) [mm^2] | Mean Tumor Area (mm^2) Finish ([2]; 30 mg/kg daily by gavage, 5 weeks) | Mean Tumor Area (mm^2) Start ([2]; 30 mg/kg daily by gavage, 5 weeks test) [mm^2] | Mean Tumor Area (mm^2) Finish ([2]; 300 ppm in the diet, 8 weeks) | Mean Tumor Area (mm^2) Start ([2]; 300 ppm in the diet, 8 weeks test) [mm^2]
1 | Clc1ccc(C(c2ccc(Cl)cc2)c2cncnc2)cc1 [compound 27, 5-bis(4-chlorophenyl)methylpyrimidine] | 92.25^+ mg | 80.20^+ mg | 154 mm^2 | 78.6 |  |  |  |  |  |  |  |  |  |  |  |  |  | 
2 | OC(c1ccc(Cl)cc1)(c1ccc(Cl)cc1)c1cncnc1 [compound 29, α,α-bis(4-chlorophenyl)-5-pyrimidinemethanol] |  | 75.00^+ mg | 10.0^+ mm^2 | 60.7 | 210^+ mm^2 | 66 | 123.5 | 56.3 | 159^+ mm^2 | 63 | 9^+ mm^2 | 50 | 34.3 | 71.5 | 146^+ mm^2 | 69 | 355^+ mm^2 | 160.4

Source: EP0116431B1, “Aromatase inhibiting pyrimidine derivatives” (ELI LILLY AND COMPANY, priority 1983, dated 1984)
